Where no end group is shown, it is not given here. The star is where a group is joined. Myristoyl = CCCCCCCCCCCCCC(=O)*
Tested on: Mut-p53
Test: Total activity score over combined assays (Table 8)
Set-up: scale not given here
Conditions: for Activity Score: Table 10 summary of activity of the peptides tested; for AS (Activity Score): total score of Table 7; for PCR, activity score / Conformation, activity score: Table 8; for PCR, activity score: head span not shown; for Conformation, activity score: the 14 score columns c4-c17 stand under the heads Conformation, DNA binding, Viability, PCR
From the text: Several alternative and complementary methods to screen lead peptide candidates for conformational and functional effects on Mut-p53 were employed. For increased penetration of peptide across cell membranes each peptide contains 3-6 Arginine residues either as part of its sequence or added either at its N-terminus or its C-terminus. […] In-vitro based assays for evaluation were first performed, such as ELISA for assessment of p53 conformation and sequence-specific DNA binding of p53.

Substance | Activity Score | AS (Activity Score) | PCR, activity score | Conformation, activity score
pCAP143 (IPMNFTSHSLRQRRRRRRRRR) | 6 | 6 |  | 
pCAP156 (VPHIHEFTRRRRRRRR) | 0 | 0 |  | 
pCAP210 (DEFERYRRFSTSRRR) | 29 |  | 6 | 3
pCAP57 (LMSNAQY) | 8 | 8 |  | 
pCAP19 (NPNTYVPHWMRQ) | 0 | 0 |  | 
pCAP52 (SPYPIRT) | 3 | 3 |  | 
pCAP110 (LFILVFR) | 2 | 2 |  | 
pCAP132 (NHPWQFPNRWTRRRRRR) | 7 | 7 |  | 
pCAP89 (SILTLSCRCRLRLWR) | 8 | 8 |  | 
pCAP137 (GAMHLPWHMGTRRRRRR) | 8 | 8 |  | 
pCAP100 (FPGHTIH) | 19 | 19 |  | 
pCAP223 (SPWTHERRCRQR) | 0 |  |  | 
pCAP133 (SLLIGFGIIRSRRRRRRRR) | 10 | 10 |  | 
pCAP302 (LRIEPIRIR) | 6 |  |  | 
pCAP82 (QIPHRSSTALQL) | 6 | 6 |  | 
pCAP93 (ATQHHYIK) | 17 | 17 |  | 
pCAP21 (NHPWQFPNRWTV) | 29 | 29 |  | 
pCAP215 (RRDTFDIRILMAF) | 0 |  |  | 
pCAP136 (SILTLRLRRLRRRRRRRR) | 14 | 14 |  | 
pCAP262 (ESKTGHKSEEQRLRRYR) | 0 |  |  | 
pCAP15 (THFSHHLKH) | 12 | 12 |  | 

Substance | Activity Score | AS (Activity Score) | PCR, activity score | Conformation, activity score
pCAP301 (Myristoyl-IRGRIRIIRRIR) | 12 |  |  | 
pCAP114 (AISHHTR) | 0 | 0 |  | 
pCAP87 (HANLHHT) | 37 | 37 |  | 
pCAP3 (FWTQSIKERKMLNEHDFEVR) | 12 | 12 |  | 
pCAP62 (YELPHHAYPA) | 10 | 10 |  | 
pCAP6 (LGIDEDEETETAPE) | 5 | 5 |  | 
pCAP316 (Myristoyl-DIHTIHLPDTHRR) | 7 |  |  | 
pCAP161 (HNAH) | 29 | 29 |  | 
pCAP294 (FKPERFPQNDRRR) | 0 |  |  | 
pCAP118 (SNHHHRHHTNTH) | 13 | 13 |  | 
pCAP152 (YRRLLIGMRRRRRRRRRRRR) | 11 | 11 |  | 
pCAP116 (KHHPFDHRLGNQ) | 0 | 0 |  | 
pCAP205 (RCRNRKKEKTECLQKESEK) | 5 |  |  | 
pCAP53 (ILVIIQRIM) | 3 | 3 |  | 
pCAP273 (RDFHTIHPSISRR) | 3 |  |  | 
pCAP107 (DRLSVFLFIM) | 0 | 0 |  | 
pCAP54 (IRGRIIR) | 26 | 26 |  | 
pCAP264 (RRRREVHTIHQHGIVHSD) | 0 |  |  | 
pCAP312 (RRPRIPDYIL) | 3 |  |  | 
pCAP41 (WHHRQQIPRPLE) | 2 | 2 |  | 
pCAP69 (SILTLSRRRRRRRRRR) | 0 | 0 |  | 

Substance | Activity Score | AS (Activity Score) | PCR, activity score | Conformation, activity score
pCAP214 (RRRESEQRSISLHHHST) | 2 |  |  | 
pCAP122 (HSYSPYYTFRQH) | 5 | 5 |  | 
pCAP259 (Myristoyl-RTLIGIIRSHHLTLIRR) | 25 |  | 2 | 
pCAP229 (Myristoyl-PRVLPSPHTIHPSQYP) | 36 |  | 4 | 
pCAP55 (FLLPEPDENTRW) | 8 | 8 |  | 
pCAP119 (HSAHHTM) | 0 | 0 |  | 
pCAP32 (TSPLQSLK) | 4 | 4 |  | 
pCAP235 (RSYSKLLCLLERLRISP) | 11 |  |  | 
pCAP94 (LRFIDYP) | 4 | 4 |  | 
pCAP127 (SPPIRHH) | 3 | 3 |  | 
pCAP228 (DEDAAHSTGHPHNSQHRRRR) | 3 |  |  | 
pCAP258 (FLIGPDRLIRSR) | 23 |  | 4 | 
pCAP277 (DQPYPHRRIR) | 3 |  |  | 
pCAP243 (RRCRSILPLLLLSR) | 2 |  |  | 
pCAP103 (LRRQLQL) | 3 | 3 |  | 
pCAP311 (EIHTIHLLPERR) | 0 |  |  | 
pCAP284 (Myristoyl-RHDTHNAHIRR) | 6 |  |  | 
pCAP174 (HSTPHP) | 54 | 54 |  | 
pCAP285 (RRDIIRHNAHS) | 4 |  |  | 
pCAP150 (IIRGNFLIGGRLRRRRRRRRR) | 26 | 26 |  | 
pCAP79 (SVHHHHRMHLVA) | 0 | 0 |  | 

Substance | Activity Score | AS (Activity Score) | PCR, activity score | Conformation, activity score
pCAP125 (ELGLHRH) | 0 | 0 |  | 
pCAP318 (RPEFHSFHPIYERR) | 6 |  |  | 
pCAP134 (IRILMFLIGCGRRRRRRRR) | 40 | 40 |  | 
pCAP204 (MSTESNMPRLIQNDDRRR) | 20 |  | 5 | 
pCAP282 (Myristoyl-RRPVAPDLRHTIHIPPER) | 43 |  | 3 | 4
pCAP171 (PHHHS) | 0 | 0 |  | 
pCAP225 (HTIHSISDFPEPPDRRRR) | 3 |  |  | 
pCAP130 (EVTFRHSVVRRRRRRRRRRR) | 13 | 13 |  | 
pCAP221 (Myristoyl-RRKHNKHRPEPDSDER) | 60 |  | 6 | 3
pCAP224 (RRKSEPHSLSGGYQTGAD) | 2 |  |  | 
pCAP245 (NHITNGGEEDSDCSSRRRRL) | 8 |  |  | 
pCAP236 (RRRSTNTFLGEDFDQ) | 0 |  |  | 
pCAP256 (RTLHGRRVILHEGGHSISDLK) | 2 |  |  | 
pCAP1 (EVTFRHSVV) | 32 | 32 |  | 
pCAP208 (RRIRSGGKDHAWTPLHENH) | 0 |  |  | 
pCAP144 (SFILFIRRGRLGRRRRRRRRR) | 49 | 49 |  | 
pCAP247 (RRITEIRGRTGKTTLTYIED) | 6 |  |  | 
pCAP25 (YRRLLIGMMW) | 0 | 0 |  | 
pCAP48 (IPMNFTSHSLRQ) | 13 | 13 |  | 
pCAP99 (GLHLFTTDRQGW) | 7 | 7 |  | 

Source: US11028127B2, “Peptides capable of reactivating p53 mutants” (Yeda Research and Development Co. Ltd., priority 2013, dated 2021)
